Assay in all cases: relative viability (nuclei count vs DMSO), 5 days (fraction); higher = more cells survive
Compound in test [1]: CN[C@@H]1C[C@H]2O[C@@](C)([C@@H]1OC)n1c3ccccc3c3c4c(c5c6ccccc6n2c5c31)C(=O)NC4 [Staurosporine] + CC(=O)c1c(C)c2cnc(Nc3ccc(N4CCNCC4)cn3)nc2n(C2CCCC2)c1=O [Palbociclib] (partner 0.5 µM)
A digest of the protocol: (§1)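 One day after seeding in 1536-well plates, lung cancer cell lines were dosed by pin tool. Dosing was either single-drug or a fixed anchor-drug dose plus five library-drug doses (not always all listed) in √10 steps. After 5 days, nuclei were stained in one fix-and-stain step and counted on 4× images, and relative viability is the nuclei count of treated wells over that of vehicle wells, given as the median of duplicate plates.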

Compound in test [2]: CN[C@@H]1C[C@H]2O[C@@](C)([C@@H]1OC)n1c3ccccc3c3c4c(c5c6ccccc6n2c5c31)C(=O)NC4 [Staurosporine] + CCNC(=O)c1noc(-c2cc(C(C)C)c(O)cc2O)c1-c1ccc(CN2CCOCC2)cc1 [Luminespib] (partner 0.01 µM)
A digest of the protocol:
as §1

Compound in test [3]: CN[C@@H]1C[C@H]2O[C@@](C)([C@@H]1OC)n1c3ccccc3c3c4c(c5c6ccccc6n2c5c31)C(=O)NC4 [Staurosporine] + Nc1nc2[nH]cc(CCc3ccc(C(=O)N[C@@H](CCC(=O)O)C(=O)O)cc3)c2c(=O)[nH]1 [Pemetrexed] (partner 0.2 µM)
A digest of the protocol: as §1

Compound in test [4]: O=c1[nH]cc(F)c(=O)[nH]1 [5-Fluorouracil] + Nc1nc2[nH]cc(CCc3ccc(C(=O)N[C@@H](CCC(=O)O)C(=O)O)cc3)c2c(=O)[nH]1 [Pemetrexed] (partner 0.2 µM)
A digest of the protocol:
as §1

For UMC-11, the relative viability in test [1] (first compound 0.005 µM) came to 0.335; in test [1] (first compound 0.05 µM), 0.201; in test [1] (first compound 0.1581 µM), 0.152; in test [1] (first compound 0.5 µM), 0.158; in test [2] (first compound 0.005 µM) it was 0.894; in test [2] (first compound 0.01581 µM), 0.487. The relative viability in test [2] (first compound 0.05 µM) turned out to be 0.223; in test [2] (first compound 0.1581 µM), 0.135; in test [2] (first compound 0.5 µM) it was 0.0992; in test [3] (first compound 0.005 µM) it was 0.695; in test [3] (first compound 0.01581 µM), 0.472; in test [3] (first compound 0.05 µM) it was 0.387. The relative viability in test [3] (first compound 0.1581 µM) was 0.104; in test [3] (first compound 0.5 µM) it was 0.0932; in test [4] (first compound 0.02 µM), 0.807; in test [4] (first compound 0.2 µM), 0.563; in test [4] (first compound 0.6325 µM), 0.508.

These data come from the supplement of paper PMC10307832.
